Measured values as given in publication PMC9458059, “Design, Synthesis and Biological Evaluation of New Carbohydrate-Based Coumarin Derivatives as Selective Carbonic Anhydrase IX Inhibitors via “Click” Reaction” (Molecules, 2022).
Like-named read-outs stand apart in the source and are kept apart here.

How the values were obtained:
[1] = target: CAI; settings: reported coumarins, Figure 1; cited from earlier work
[2] = target: CAII; settings: reported coumarins, Figure 1; cited from earlier work
[3] = target: CAIX; settings: reported coumarins, Figure 1; cited from earlier work
[4] = target: T1, hCA I (Homo sapiens, UniProt P00915); assay: CA inhibition by the esterase assay, hCA I; format: biochemical; settings: for IC50: human recombinant enzyme, 4-nitrophenylacetate as substrate
T1 construct: purchased
T1 sequence (P00915 whole entry): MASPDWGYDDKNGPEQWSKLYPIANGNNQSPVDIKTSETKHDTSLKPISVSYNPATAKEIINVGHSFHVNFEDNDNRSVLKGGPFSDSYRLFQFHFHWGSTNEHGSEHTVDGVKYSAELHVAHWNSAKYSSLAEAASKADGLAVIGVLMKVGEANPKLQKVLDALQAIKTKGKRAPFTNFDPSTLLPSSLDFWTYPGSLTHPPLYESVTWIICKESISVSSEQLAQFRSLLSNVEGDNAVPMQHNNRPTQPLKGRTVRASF
Method: (§1) The esterase assay was used for testing the inhibitory activities of target compounds against carbonic anhydrases. […] Next, the stock solution of inhibitor was diluted to the specified concentration by using analysis buffer. […] In addition, the purchased CA was diluted with analysis buffer and added to 96-well plates. Next, different concentrations of inhibitors were also added to 96-well plates. To form the inhibitors and enzymes complex, E-I solutions were preincubated together for 4 h before the test at room temperature. Meanwhile, the nonenzymatic hydrolysis rates were tested by the blank control experiments. The absorbances were determined by using multifunctional enzyme marking instrument.

[5] = target: hCA II (Homo sapiens, UniProt P00918); assay: CA inhibition by the esterase assay, hCA II; format: biochemical; settings: human recombinant enzyme, 4-nitrophenylacetate as substrate
Method: as §1

[6] = target: T2, hCA IX (Homo sapiens, UniProt Q16790); assay: CA inhibition by the esterase assay, hCA IX; format: biochemical; settings: for Inhibition of hCA IX (in words) / IC50: esterase assay; for IC50: human recombinant enzyme, 4-nitrophenylacetate as substrate; for Selectivity Ratio hCA I/hCA IX / Selectivity Ratio hCA II/hCA IX: ratio of IC50 values
T2 construct: purchased
Method: as §1

[7] = tested on: HT-29 cells; assay: Cell viability MTT assay, HT-29; format: cell-based; settings: Homo sapiens
Method: (§2) In the present study, the potential cytotoxicity of compounds 10a–10p was evaluated in vitro by MTT assay. […] So, half of each cell line were subjected to hypoxic conditions (0.5% O2, 5% CO2 and 94.5% N2) for inducing the expression of CA IX and the other half were incubated under normal conditions (normoxia). Subsequently, all synthesized derivatives were screened at a concentration of 100 μM to test their cytotoxicity in mentioned above cells.
(§3) The two human cancer cell lines were cultivated for 24 h at 37 °C in a 96-well plate. Subsequently, different concentrations of inhibitors were added to 96-well plate and then was incubated for 96 hours. After the MTT solution was added to per well, cancer cells were further incubated for 4 h at 37 °C. Finally, formazan crystals were dissolved by using DMSO. The cancer cells were from American Type Culture Collection.

[8] = tested on: MDA-MB-231 cells; assay: Cell viability MTT assay, MDA-MB-231; format: cell-based; settings: Homo sapiens
Method: as §2, §3

[9] = tested on: MCF-10A cell line; assay: Cytotoxicity against normal cell line MCF-10A (MTT assay); format: cell-based; settings: Homo sapiens
[10] = target: T3, hERG channel (Homo sapiens, UniProt Q12809); assay: Inhibition evaluation on hERG K+ channel (whole-cell recording, HEK 293); format: cell-based; settings: HEK 293 cells stably transfected with hERG
T3 construct: expressed in transfected cells; host or cells: HEK 293
T3 sequence (Q12809 whole entry): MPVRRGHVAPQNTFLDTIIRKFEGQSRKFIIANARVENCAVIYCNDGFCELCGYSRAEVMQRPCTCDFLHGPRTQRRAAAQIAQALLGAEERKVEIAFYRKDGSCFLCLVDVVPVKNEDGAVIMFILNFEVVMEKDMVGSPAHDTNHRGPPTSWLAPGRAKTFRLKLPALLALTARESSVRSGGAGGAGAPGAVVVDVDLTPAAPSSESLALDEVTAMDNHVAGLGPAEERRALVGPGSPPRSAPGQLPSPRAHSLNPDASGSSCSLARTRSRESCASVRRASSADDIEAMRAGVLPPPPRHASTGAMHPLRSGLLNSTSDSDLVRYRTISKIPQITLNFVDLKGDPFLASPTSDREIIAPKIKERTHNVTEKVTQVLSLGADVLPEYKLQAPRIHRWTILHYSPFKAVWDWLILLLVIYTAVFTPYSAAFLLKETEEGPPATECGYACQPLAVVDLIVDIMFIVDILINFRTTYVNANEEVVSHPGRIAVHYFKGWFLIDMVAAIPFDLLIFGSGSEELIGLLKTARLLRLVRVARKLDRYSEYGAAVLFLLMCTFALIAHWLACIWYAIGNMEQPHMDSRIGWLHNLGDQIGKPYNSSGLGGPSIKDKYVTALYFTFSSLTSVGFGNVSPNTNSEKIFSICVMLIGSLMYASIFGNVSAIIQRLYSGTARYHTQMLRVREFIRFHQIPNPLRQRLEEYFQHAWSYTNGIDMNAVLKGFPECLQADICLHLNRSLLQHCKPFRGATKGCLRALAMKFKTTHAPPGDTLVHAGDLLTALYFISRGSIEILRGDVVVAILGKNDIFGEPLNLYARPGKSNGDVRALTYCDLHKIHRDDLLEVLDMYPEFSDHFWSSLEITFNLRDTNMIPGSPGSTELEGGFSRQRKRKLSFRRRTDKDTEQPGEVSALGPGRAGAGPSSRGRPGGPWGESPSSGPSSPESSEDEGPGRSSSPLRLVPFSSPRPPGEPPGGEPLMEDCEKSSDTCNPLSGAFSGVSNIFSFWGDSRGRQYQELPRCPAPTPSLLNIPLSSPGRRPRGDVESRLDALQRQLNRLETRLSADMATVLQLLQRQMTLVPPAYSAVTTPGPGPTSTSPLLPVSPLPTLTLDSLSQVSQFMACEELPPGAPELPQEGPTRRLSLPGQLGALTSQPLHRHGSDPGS
Method: HEK 293 cells were stably transfected with human Ether-a-gogo related gene (hERG) channel. The voltage-gated hERG potassium channel current was recorded at room temperature from randomly selected transfected cells using whole-cell recording technique with an EPC10 USB (HEKA) or Multiclamp 700 B amplifier (Molecular Devices) while electrical data was digitalized by Digidata1440 A with acquisition rate of 10 kHz and signals filtered at 2.5 KHz using Patchmaster or pClamp 10, respectively. Dofetilide was included as a positive control to ensure the accuracy and sensitivity of the test system. All experiments were performed in 3 times.

[11] = Acute toxicity assay in mice; settings: mouse, in vivo, oral, mice, expected from preliminary data
Method: (§4) Finally, acute toxicity of representative compounds was conducted in mice to preliminarily evaluate the risk of target compounds to mammals. […].
(§5) […]. After the compound was administered, the latency of death was observed and recorded over a span of 14 days. The experimental protocols were evaluated and approved by the ethics committee of the Shenyang Pharmaceutical University.

[12] = tested on: mice; assay: Acute toxicity assay in mice; settings: mouse, in vivo, 14 days
Method: as §4, §5

[13] = Metabolic stability in mouse liver microsomes; settings: mouse, liver microsomes
[14] = tested on: HT-29 cancer cells; assay: Extracellular pH measurement, HT-29; format: cell-based, human; settings: HT-29, 0.1 and 0.5 mM, 48 h, normoxia and hypoxia
Method: (§6) One important feature of CA IX is regulating the pH of tumor cells. The expression of CA IX in solid tumors will make the extracellular pH become more acidic to promote tumor growth and metastasis. Therefore, the effect on extracellular pH of the representative compounds 10a and 10h was tested in hypoxia and normoxic conditions. […] Especially, the extracellular acidification of these two cancer cells could be slightly reversed by this compound under normoxic condition. In addition, the reversal of extracellular acidification is more significant under hypoxia condition. Furthermore, a dose-dependent effect was observed.
(§7) Figure 3 Extracellular pH measurement after 48 h of HT-29 and MDA-MB-231 cancer cells in normoxia and hypoxia upon treatment with compound 10a and 10h (0.1 and 0.5 mM).

[15] = tested on: MDA-MB-231 cancer cells; assay: Extracellular pH measurement, MDA-MB-231; format: cell-based, human; settings: MDA-MB-231, 0.1 and 0.5 mM, 48 h, normoxia and hypoxia
Method: as §6, §7

[16] = hypoxia (0.5% O2, 5% CO2 and 94.5% N2), read-out: Cell Viability (%) HT-29 Hypoxia
[17] = normoxia, read-out: Cell Viability (%) HT-29 Normoxia
[18] = hypoxia (0.5% O2, 5% CO2 and 94.5% N2), read-out: Cell Viability (%) MDA-MB-231 Hypoxia
[19] = normoxia, read-out: Cell Viability (%) MDA-MB-231 Normoxia

S=c1ccc2ccccc2o1 [2-Thiocoumarin 4, 2-thioxocoumarin]
Ki [1]: > 100 µM | Ki [2]: > 100 µM | Ki [3]: 6.7 µM

Cc1cc(=O)oc2cc(O)ccc12 [4-Methylumbelliferone, 4-methyl-7-hydroxy coumarin, reference compound]
Inhibition of hCA I (in words) [4]: not at all inhibited | IC50 [4]: > 100 µM | IC50 [5]: > 100 µM | Inhibition of hCA IX (in words) [6]: weakly inhibited | IC50 [6]: 0.6 µM | Ki [1]: > 100 µM | Ki [2]: > 100 µM | Ki [3]: 0.56 µM

Cc1cc(=O)oc2cc(O[C@@H]3O[C@H](CO)[C@@H](O)[C@H](O)[C@H]3O)ccc12 [Compound 8]
Ki [1]: 1 µM | Ki [2]: > 100 µM | Ki [3]: 0.37 µM

Cc1cc(=O)oc2cc(O[C@@H]3O[C@H](CO)[C@@H](O)[C@H](O)[C@@H]3O)ccc12 [Compound 9]
Ki [1]: > 100 µM | Ki [2]: > 100 µM | Ki [3]: 0.0092 µM

O=c1ccc2ccc(OCc3cn([C@@H]4O[C@H](CO)[C@@H](O)[C@H](O)[C@@H]4O)nn3)cc2o1 [Compound 10c, 7-[(1-β-. D-mannopyranosyl-1H-1,2,3-triazol-4-yl)methoxy]-2H-chromen-2-one]
IC50 [4]: 17.5 µM | IC50 [5]: 24 µM | IC50 [6]: 0.015 µM | Selectivity Ratio hCA I/hCA IX [6]: 1167 | Selectivity Ratio hCA II/hCA IX [6]: 1600 | viability at 100 µM [7, 16]: 40.2% | viability at 100 µM [7, 17]: 42.6% | viability at 100 µM [8, 18]: 38.3% | viability at 100 µM [8, 19]: 55.2% | IC50 [9]: > 100 µM | IC50 [10]: > 50 µM | LD50 at 14 days [11]: > 1500 mg/kg | Survival Quantity/Total Quantity ([12]; 500 mg/kg): 5/5 | Survival Quantity/Total Quantity ([12]; 1000 mg/kg): 5/5 | Survival Quantity/Total Quantity ([12]; 1500 mg/kg): 5/5 | CLint scaled at 1 μM [13]: 4.07 mL/min/kg | half-life at 1 μM [13]: 22.4 h

O=c1ccc2ccc(OCc3cn([C@@H]4O[C@H](CO)[C@@H](O)[C@H]4O)nn3)cc2o1 [Compound 10h, 7-[(1-β-. D-ribofuranosyl-1H-1,2,3-triazol-4-yl)methoxy]-2H-chromen-2-one]
IC50 [4]: 23.3 µM | IC50 [5]: 19 µM | IC50 [6]: 0.132 µM | Selectivity Ratio hCA I/hCA IX [6]: 177 | Selectivity Ratio hCA II/hCA IX [6]: 144 | viability at 100 µM [7, 16]: 43.5% | viability at 100 µM [7, 17]: 54% | viability at 100 µM [8, 18]: 37.2% | viability at 100 µM [8, 19]: 63.7% | Effect on extracellular acidification (extracellular pH) [14]: weaker reversal effect of extracellular acidification | Effect on extracellular acidification (extracellular pH) [15]: weaker reversal effect of extracellular acidification | melting point: 131.2 to 133.6 °C | CLint scaled at 1 μM [13]: 4.21 mL/min/kg | half-life at 1 μM [13]: 21.7 h

S=c1ccc2ccccc2s1 [Dithiocoumarin 5, dithiocoumarin]
Ki [1]: > 100 µM | Ki [2]: > 100 µM

O=c1ccc2ccc(O)cc2o1 [Umbelliferone, 7-hydroxy coumarin]
Inhibition of hCA I (in words) [4]: not at all inhibited | Inhibition of hCA IX (in words) [6]: weakly inhibited | Ki [1]: > 58.4 µM | Ki [2]: > 100 µM | Ki [3]: 0.478 µM
